The CheMixHub viscosity set
± gives the uncertainty stated by the source.

Experiment: xn = mol fraction of the nth substance listed

CC(=O)OCCC(C)C + Brc1ccccc1
viscosity [mPa·s], 101 kPa
Conditions | 298.15 K | 303.15 K | 308.15 K | 313.15 K
x1 = 0.0443 | 1.026 ± 0.007 | – | 0.952 ± 0.006 | –
x1 = 0.0719 | – | 1.003 ± 0.012 | – | 0.883 ± 0.011
x1 = 0.1494 | 0.992 ± 0.006 | – | 0.925 ± 0.006 | –
x1 = 0.1499 | – | 0.991 ± 0.012 | – | 0.869 ± 0.011
x1 = 0.2334 | – | 0.974 ± 0.012 | – | 0.852 ± 0.011
x1 = 0.2513 | 0.962 ± 0.006 | – | 0.898 ± 0.006 | –
x1 = 0.3222 | – | 0.949 ± 0.012 | – | 0.828 ± 0.011
x1 = 0.3494 | 0.933 ± 0.006 | – | 0.875 ± 0.006 | –
x1 = 0.4137 | – | 0.921 ± 0.012 | – | 0.801 ± 0.011
x1 = 0.4478 | 0.908 ± 0.006 | – | 0.853 ± 0.006 | –
x1 = 0.4962 | 0.895 ± 0.006 | – | 0.842 ± 0.006 | –
x1 = 0.509 | – | 0.893 ± 0.012 | – | 0.774 ± 0.011
x1 = 0.5517 | 0.881 ± 0.006 | – | 0.83 ± 0.006 | –
x1 = 0.6182 | – | 0.859 ± 0.012 | – | 0.743 ± 0.011
x1 = 0.6512 | 0.857 ± 0.006 | – | 0.811 ± 0.006 | –
x1 = 0.7358 | – | 0.823 ± 0.011 | – | 0.711 ± 0.011
x1 = 0.7497 | 0.834 ± 0.006 | – | 0.792 ± 0.006 | –
x1 = 0.8504 | 0.812 ± 0.006 | – | 0.773 ± 0.005 | –
x1 = 0.8603 | – | 0.787 ± 0.011 | – | 0.677 ± 0.011
x1 = 0.9487 | 0.791 ± 0.006 | – | 0.756 ± 0.005 | –

CC(=O)OCCC(C)C + C1CCCCC1
viscosity [mPa·s], 101 kPa
Conditions | 298.15 K | 308.15 K
x1 = 0.0292 | 0.862 ± 0.087 | 0.73 ± 0.073
x1 = 0.0895 | 0.813 ± 0.082 | 0.686 ± 0.069
x1 = 0.1448 | 0.776 ± 0.078 | 0.653 ± 0.066
x1 = 0.2104 | 0.74 ± 0.074 | 0.621 ± 0.062
x1 = 0.3069 | 0.7 ± 0.07 | 0.587 ± 0.059
x1 = 0.3512 | 0.687 ± 0.069 | 0.577 ± 0.058
x1 = 0.3964 | 0.676 ± 0.068 | 0.569 ± 0.057
x1 = 0.4958 | 0.661 ± 0.066 | 0.561 ± 0.056
x1 = 0.6222 | 0.661 ± 0.066 | 0.57 ± 0.057
x1 = 0.753 | 0.682 ± 0.068 | 0.603 ± 0.061
x1 = 0.9257 | 0.747 ± 0.075 | 0.69 ± 0.069

CCOP(OCC)OCC + CC#N
298.15 K, 101 kPa
Conditions | viscosity [mPa·s]
x1 = 0.2 | 0.452 ± 0.005
x1 = 0.4 | 0.512 ± 0.007
x1 = 0.6 | 0.573 ± 0.008
x1 = 0.8 | 0.642 ± 0.01

C[NH+](C)C.[Cl-] + CC(=O)CCC(=O)O
101 kPa, x2 = 0.75
Conditions | viscosity [mPa·s]
293.15 K | 74.02 ± 3.1
303.15 K | 42.25 ± 1.8
313.15 K | 25.57 ± 1.1
323.15 K | 17.71 ± 0.73

CC(=O)Nc1ccccc1 + CC(=O)O
viscosity [mPa·s], 101.3 kPa
Conditions | x1 = 0.1 | x1 = 0.204 | x1 = 0.288
298.15 K | 19 ± 0.5 | 30.2 ± 0.8 | 43.6 ± 1.1
323.15 K | 11.8 ± 0.3 | 18.2 ± 0.5 | 27.7 ± 0.7

CC(=O)O.OCCNCCO + CC(=O)O.NCCO
viscosity [mPa·s], 101.3 kPa
Conditions | x2 = 0.132 | x2 = 0.2549 | x2 = 0.3688 | x2 = 0.4761 | x2 = 0.5761 | x2 = 0.671 | x2 = 0.7597 | x2 = 0.8444 | x2 = 0.9235
293.15 K | 2246 ± 150 | 2377 ± 160 | 2507 ± 170 | 2638 ± 170 | 2769 ± 180 | 2900 ± 190 | 3031 ± 200 | 3161 ± 210 | 3292 ± 220
298.15 K | 1454 ± 89 | 1544 ± 95 | 1635 ± 100 | 1725 ± 110 | 1815 ± 110 | 1906 ± 120 | 1996 ± 130 | 2086 ± 130 | 2177 ± 140
303.15 K | 965.1 ± 56 | 1025 ± 60 | 1084 ± 64 | 1144 ± 68 | 1204 ± 72 | 1263 ± 76 | 1323 ± 80 | 1383 ± 84 | 1442 ± 88
308.15 K | 657.7 ± 36 | 698.1 ± 39 | 738.5 ± 41 | 778.9 ± 44 | 819.3 ± 46 | 859.7 ± 49 | 900 ± 52 | 940.4 ± 54 | 980.8 ± 57
313.15 K | 459.4 ± 24 | 487.4 ± 26 | 515.3 ± 27 | 543.3 ± 29 | 571.3 ± 31 | 599.2 ± 33 | 627.2 ± 34 | 655.1 ± 36 | 683.1 ± 38
318.15 K | 328.1 ± 17 | 348 ± 18 | 367.8 ± 19 | 387.6 ± 20 | 407.4 ± 21 | 427.3 ± 22 | 447.1 ± 23 | 466.9 ± 25 | 486.7 ± 26
323.15 K | 239.3 ± 12 | 253.7 ± 12 | 268 ± 13 | 282.3 ± 14 | 296.7 ± 15 | 311 ± 16 | 325.3 ± 16 | 339.7 ± 17 | 354 ± 18

CCCCCCCC/C=C\CCCCCCCCO + CC(C)[C@@H]1CC[C@@H](C)C[C@H]1O
100 kPa, x2 = 0.5
Conditions | viscosity [mPa·s]
298.13 K | 19.79 ± 0.39
298.15 K | 19.76 ± 0.41
303.15 K | 14.47 ± 0.27
313.13 K | 9.11 ± 0.17
323.12 K | 5.98 ± 0.11

CC(=O)OCCC(C)C + CCCCCC
viscosity [mPa·s], 101 kPa
Conditions | 298.15 K | 308.15 K
x1 = 0.0521 | 0.303 ± 0.004 | 0.286 ± 0.004
x1 = 0.149 | 0.328 ± 0.004 | 0.313 ± 0.004
x1 = 0.2509 | 0.358 ± 0.004 | 0.345 ± 0.004
x1 = 0.3492 | 0.391 ± 0.004 | 0.38 ± 0.004
x1 = 0.4851 | 0.445 ± 0.004 | 0.435 ± 0.004
x1 = 0.5317 | 0.466 ± 0.004 | 0.456 ± 0.004
x1 = 0.5507 | 0.475 ± 0.004 | 0.464 ± 0.004
x1 = 0.6504 | 0.526 ± 0.005 | 0.514 ± 0.005
x1 = 0.7492 | 0.585 ± 0.005 | 0.57 ± 0.005
x1 = 0.8506 | 0.655 ± 0.005 | 0.635 ± 0.005
x1 = 0.9546 | 0.74 ± 0.005 | 0.711 ± 0.005

CCCCCCCC/C=C\CCCCCCCC(=O)OCC + CCCCCCCCCCCCCCCC
viscosity [mPa·s], 100 kPa
Conditions | x1 = 0.1 | x1 = 0.2 | x1 = 0.3 | x1 = 0.4 | x1 = 0.5 | x1 = 0.6 | x1 = 0.7 | x1 = 0.8 | x1 = 0.9
293.15 K | 3.595 ± 0.046 | 3.805 ± 0.053 | 4.056 ± 0.062 | 4.336 ± 0.073 | 4.643 ± 0.085 | 4.964 ± 0.1 | 5.309 ± 0.12 | 5.671 ± 0.13 | 6.032 ± 0.15
298.15 K | 3.195 ± 0.041 | 3.382 ± 0.047 | 3.599 ± 0.055 | 3.849 ± 0.065 | 4.12 ± 0.076 | 4.405 ± 0.088 | 4.704 ± 0.1 | 5.019 ± 0.12 | 5.335 ± 0.14
303.15 K | 2.852 ± 0.037 | 3.009 ± 0.042 | 3.2 ± 0.049 | 3.422 ± 0.058 | 3.657 ± 0.067 | 3.906 ± 0.078 | 4.163 ± 0.091 | 4.434 ± 0.1 | 4.708 ± 0.12
308.15 K | 2.56 ± 0.033 | 2.705 ± 0.038 | 2.873 ± 0.044 | 3.065 ± 0.052 | 3.269 ± 0.06 | 3.485 ± 0.07 | 3.71 ± 0.081 | 3.946 ± 0.093 | 4.185 ± 0.11
313.15 K | 2.314 ± 0.03 | 2.443 ± 0.035 | 2.589 ± 0.04 | 2.755 ± 0.047 | 2.928 ± 0.054 | 3.113 ± 0.063 | 3.306 ± 0.072 | 3.508 ± 0.083 | 3.715 ± 0.094
318.15 K | 2.1 ± 0.027 | 2.217 ± 0.031 | 2.351 ± 0.036 | 2.504 ± 0.042 | 2.662 ± 0.049 | 2.83 ± 0.057 | 3.004 ± 0.066 | 3.186 ± 0.075 | 3.372 ± 0.086
323.15 K | 1.917 ± 0.025 | 2.023 ± 0.029 | 2.144 ± 0.033 | 2.28 ± 0.039 | 2.421 ± 0.045 | 2.571 ± 0.052 | 2.723 ± 0.06 | 2.887 ± 0.068 | 3.053 ± 0.078
